Reference: US10766865B2, “PKM2 modulators and methods for their use” (TOLERO PHARMACEUTICALS, INC., priority 2012, dated 2020)

Target: PKM2 (Homo sapiens, UniProt P14618)
Test: PKM2 Biochemical Assay
Conditions: for Max. Resp.: % maximum response in a biochemical assay as compared with Fructose 1,6-bisphosphate
Description: Full length, human PKM2 enzyme was obtained from Promab (Richmond, Calif.). All reagents, unless otherwise noted, were obtained from Sigma (St. Louis, Mo.).
Compounds were pre-incubated with 2 nM PKM2 in reaction buffer (50 mM Tris-HCl, pH 8.0, 200 mM KCl, 30 mM MgCl2, 2 mM DTT, 5% DMSO) for 30 min at ambient temperature. […] After 30 min, ATP formation was measured by Kinase Glo (Promega, Madison, Wis.), and AC50 values were determined using Prism (GraphPad Software, Inc., La Jolla, Calif.).

Chain of PKM2 (P14618 whole entry): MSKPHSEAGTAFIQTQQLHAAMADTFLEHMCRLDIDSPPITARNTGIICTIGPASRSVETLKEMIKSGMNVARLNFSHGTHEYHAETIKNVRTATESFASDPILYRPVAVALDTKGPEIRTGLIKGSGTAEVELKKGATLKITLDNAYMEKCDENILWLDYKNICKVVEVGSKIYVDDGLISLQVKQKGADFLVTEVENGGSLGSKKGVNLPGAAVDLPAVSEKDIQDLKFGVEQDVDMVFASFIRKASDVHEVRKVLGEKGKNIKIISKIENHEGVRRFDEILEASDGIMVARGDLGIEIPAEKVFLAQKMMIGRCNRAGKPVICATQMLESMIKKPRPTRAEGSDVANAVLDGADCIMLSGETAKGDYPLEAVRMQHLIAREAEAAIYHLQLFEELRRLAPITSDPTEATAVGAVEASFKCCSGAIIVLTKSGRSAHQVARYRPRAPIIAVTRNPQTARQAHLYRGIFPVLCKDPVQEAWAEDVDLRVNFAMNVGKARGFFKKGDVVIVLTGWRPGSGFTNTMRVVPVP

| Max. Resp. | AC50 | SMILES |
| --- | --- | --- |
| 68% |  | CCN1CCC(N(Cc2ccccc2F)C(=O)c2cc(C(F)(F)F)n[nH]2)C1 (centres unmarked) [Example 152, N-(2-fluorobenzyl)-N-(1-ethylpyrrolidin-3-yl)-3-(trifluoromethyl)-1H-pyrazole-5-carboxamide] |
| 57% |  | O=C(c1cc(C(F)(F)F)n[nH]1)N(Cc1ccccc1F)C1CCCCC1 [Example 153, N-(2-fluorobenzyl)-N-cyclohexyl-3-(trifluoromethyl)-1H-pyrazole-5-carboxamide] |
| 100% |  | CCN(CC)CCN(Cc1cccc(N)c1)C(=O)c1cc(C(F)(F)F)n[nH]1 [Example 154, N-(3-aminobenzyl)-N-(2-(diethylamino)ethyl)-3-(trifluoromethyl)-1H-pyrazole-5-carboxamide] |
| 100% |  | CCNCCN(Cc1ccccc1F)C(=O)c1cc(C(F)(F)F)n[nH]1 [Example 155, N-(2-fluorobenzyl)-N-(2-(ethylamino)ethyl)-3-(trifluoromethyl)-1H-pyrazole-5-carboxamide] |
| 100% |  | O=C(c1cc(C(F)(F)F)n[nH]1)N(CCN1CCCC1)Cc1ccccc1F [Example 158, N-(2-fluorobenzyl)-3-(trifluoromethyl)-N-(2-(pyrrolidin-1-yl)ethyl)-1H-pyrazole-5-carboxamide] |
| 100% |  | CCN(CC)CCN(Cc1ccccc1Cl)C(=O)c1cc(C(F)(F)F)n[nH]1 [Example 159, N-(2-chlorobenzyl)-N-(2-(diethylamino)ethyl)-3-(trifluoromethyl)-1H-pyrazole-5-carboxamide] |
| 100% |  | CCN(CC)CCN(Cc1cccc2[nH]cnc12)C(=O)c1cc(C(F)(F)F)n[nH]1 [Example 160, N-((1H-benzo[d]imidazol-4-yl)methyl)-N-(2-(diethylamino)ethyl)-3-(trifluoromethyl)-1H-pyrazole-5-carboxamide] |
| 100% |  | CCN(CC)CCN(Cc1cccc2[nH]ccc12)C(=O)c1cc(C(F)(F)F)n[nH]1 [Example 161, N-((1H-indol-4-yl)methyl)-N-(2-(diethylamino)ethyl)-3-(trifluoromethyl)-1H-pyrazole-5-carboxamide] |
| 100% |  | O=C(c1cc(C(F)(F)F)n[nH]1)N(CCN1CCCC1)Cc1ccccc1Cl [Example 162, N-(2-chlorobenzyl)-3-(trifluoromethyl)-N-(2-(pyrrolidin-1-yl)ethyl)-1H-pyrazole-5-carboxamide] |
| 100% |  | O=C(c1cc(C(F)(F)F)n[nH]1)N(CCN1CCCC1)Cc1cccc2nc[nH]c12 [Example 163, N-((1H-benzo[d]imidazol-7-yl)methyl)-3-(trifluoromethyl)-N-(2-(pyrrolidin-1-yl)ethyl)-1H-pyrazole-5-carboxamide] |
| 100% |  | O=C(c1cc(C(F)(F)F)n[nH]1)N(CCN1CCCC1)Cc1cccc2[nH]ccc12 [Example 164, N-((1H-indol-4-yl)methyl)-3-(trifluoromethyl)-N-(2-(pyrrolidin-1-yl)ethyl)-1H-pyrazole-5-carboxamide] |
| 50% |  | O=C(c1cc(C(F)(F)F)n[nH]1)N(CCN1CCCC1)Cc1ccc(Cl)cc1Cl [Example 165, N-(2,4-dichlorobenzyl)-3-(trifluoromethyl)-N-(2-(pyrrolidin-1-yl)ethyl)-1H-pyrazole-5-carboxamide] |
| 100% |  | CCN(CC)CCN(Cc1cccc(Cl)c1Cl)C(=O)c1cc(C(F)(F)F)n[nH]1 [Example 167, N-(2,3-dichlorobenzyl)-N-(2-(diethylamino)ethyl)-3-(trifluoromethyl)-1H-pyrazole-5-carboxamide] |
| 100% |  | CCN(CC)CCN(Cc1cc(Cl)ccc1Cl)C(=O)c1cc(C(F)(F)F)n[nH]1 [Example 168, N-(2,5-dichlorobenzyl)-N-(2-(diethylamino)ethyl)-3-(trifluoromethyl)-1H-pyrazole-5-carboxamide] |
| 100% |  | CCN(CC)CCN(Cc1c(Cl)cccc1Cl)C(=O)c1cc(C(F)(F)F)n[nH]1 [Example 169, N-(2,6-dichlorobenzyl)-N-(2-(diethylamino)ethyl)-3-(trifluoromethyl)-1H-pyrazole-5-carboxamide] |
| 100% |  | CCN(CC)CCN(Cc1ccc(F)cc1Cl)C(=O)c1cc(C(F)(F)F)n[nH]1 [Example 170, N-(2-chloro-4-fluorobenzyl)-N-(2-(diethylamino)ethyl)-3-(trifluoromethyl)-1H-pyrazole-5-carboxamide] |
| 100% |  | CCN(CC)CCN(Cc1cc(F)ccc1Cl)C(=O)c1cc(C(F)(F)F)n[nH]1 [Example 171, N-(2-chloro-5-fluorobenzyl)-N-(2-(diethylamino)ethyl)-3-(trifluoromethyl)-1H-pyrazole-5-carboxamide] |
| 100% |  | CCN(CC)CCN(Cc1ccccc1Cl)C(=O)c1cc(Br)n[nH]1 [Example 175, N-(2-chlorobenzyl)-3-bromo-N-(2-(diethylamino)ethyl)-1H-pyrazole-5-carboxamide] |
| 100% | 1150 nM | CCN(CC)CCN(Cc1ccccc1Cl)C(=O)c1cc(Cl)n[nH]1 [Example 176, N-(2-chlorobenzyl)-3-chloro-N-(2-(diethylamino)ethyl)-1H-pyrazole-5-carboxamide] |

| Max. Resp. | AC50 | SMILES |
| --- | --- | --- |
| 100% |  | O=C(c1cc(C(F)(F)F)n[nH]1)N(CCN1CCCC1)Cc1c(F)cccc1Cl [Example 177, N-(2-chloro-6-fluorobenzyl)-3-(trifluoromethyl)-N-(2-(pyrrolidin-1-yl)ethyl)-1H-pyrazole-5-carboxamide] |
| 100% |  | O=C(c1cc(C(F)(F)F)n[nH]1)N(CCN1CCCC1)Cc1c(Cl)cccc1Cl [Example 178, N-(2,6-dichlorobenzyl)-3-(trifluoromethyl)-N-(2-(pyrrolidin-1-yl)ethyl)-1H-pyrazole-5-carboxamide] |
| 100% |  | O=C(c1cc(C(F)(F)F)n[nH]1)N(CCN1CCCCC1)Cc1c(F)cccc1Cl [Example 179, N-(2-chloro-6-fluorobenzyl)-3-(trifluoromethyl)-N-(2-(piperidin-1-yl)ethyl)-1H-pyrazole-5-carboxamide] |
| 100% |  | O=C(c1cc(C(F)(F)F)n[nH]1)N(CCN1CCCCC1)Cc1c(Cl)cccc1Cl [Example 180, N-(2,6-dichlorobenzyl)-3-(trifluoromethyl)-N-(2-(piperidin-1-yl)ethyl)-1H-pyrazole-5-carboxamide] |
| 100% |  | CC(CN(Cc1ccccc1Cl)C(=O)c1cc(C(F)(F)F)n[nH]1)N1CCCC1 (centres unmarked) [Example 181, N-(2-chlorobenzyl)-3-(trifluoromethyl)-N-(2-(pyrrolidin-1-yl)propyl)-1H-pyrazole-5-carboxamide] |
| 100% |  | CCN(CC)CCN(Cc1cccc(F)c1Cl)C(=O)c1cc(C(F)(F)F)n[nH]1 [Example 182, N-(2-chloro-3-fluorobenzyl)-N-(2-(diethylamino)ethyl)-3-(trifluoromethyl)-1H-pyrazole-5-carboxamide] |
| 100% |  | CCN(CC)CCN(Cc1cc(N)ccc1Cl)C(=O)c1cc(C(F)(F)F)n[nH]1 [Example 183, N-(5-amino-2-chlorobenzyl)-N-(2-(diethylamino)ethyl)-3-(trifluoromethyl)-1H-pyrazole-5-carboxamide] |
| 85% |  | CCN(CC)CCN(Cc1ccccc1C(C)C)C(=O)c1cc(C(F)(F)F)n[nH]1 [Example 184, N-(2-isopropylbenzyl)-N-(2-(diethylamino)ethyl)-3-(trifluoromethyl)-1H-pyrazole-5-carboxamide] |
| 53% |  | CCN(CC)CCCN(Cc1ccccc1Cl)C(=O)c1cc(C(F)(F)F)n[nH]1 [Example 185, N-(2-chlorobenzyl)-N-(3-(diethylamino)propyl)-3-(trifluoromethyl)-1H-pyrazole-5-carboxamide] |
| 100% |  | CN(C)CCCN(Cc1ccccc1Cl)C(=O)c1cc(C(F)(F)F)n[nH]1 [Example 186, N-(2-chlorobenzyl)-N-(3-(dimethylamino)propyl)-3-(trifluoromethyl)-1H-pyrazole-5-carboxamide] |
| 100% |  | CN(C)CCN(Cc1ccccc1Cl)C(=O)c1cc(C(F)(F)F)n[nH]1 [Example 187, N-(2-chlorobenzyl)-N-(2-(dimethylamino)ethyl)-3-(trifluoromethyl)-1H-pyrazole-5-carboxamide] |
| 60% |  | CC1CC(C)CN(CCN(Cc2ccccc2Cl)C(=O)c2cc(C(F)(F)F)n[nH]2)C1 (centres unmarked) [Example 188, N-(2-chlorobenzyl)-3-(trifluoromethyl)-N-(2-(3,5-dimethylpiperidin-1-yl)ethyl)-1H-pyrazole-5-carboxamide] |
| 100% |  | O=C(c1cc(C(F)(F)F)n[nH]1)N(CCN1CCCCCC1)Cc1ccccc1Cl [Example 189, N-(2-chlorobenzyl)-N-(2-(azepan-1-yl)ethyl)-3-(trifluoromethyl)-1H-pyrazole-5-carboxamide] |
| 100% |  | CC1CCN(CCN(Cc2ccccc2Cl)C(=O)c2cc(C(F)(F)F)n[nH]2)CC1 [Example 190, N-(2-chlorobenzyl)-3-(trifluoromethyl)-N-(2-(4-methylpiperidin-1-yl)ethyl)-1H-pyrazole-5-carboxamide] |
| 100% |  | CC1CCCN(CCN(Cc2ccccc2Cl)C(=O)c2cc(C(F)(F)F)n[nH]2)C1 (centres unmarked) [Example 191, N-(2-chlorobenzyl)-3-(trifluoromethyl)-N-(2-(3-methylpiperidin-1-yl)ethyl)-1H-pyrazole-5-carboxamide] |
| 100% |  | CC1CCCCN1CCN(Cc1ccccc1Cl)C(=O)c1cc(C(F)(F)F)n[nH]1 (centres unmarked) [Example 192, N-(2-chlorobenzyl)-3-(trifluoromethyl)-N-(2-(2-methylpiperidin-1-yl)ethyl)-1H-pyrazole-5-carboxamide] |
| 58% |  | CCN(CC)CCN(Cc1ccccc1Cl)C(=O)c1[nH]nc(Cl)c1F [Example 193, N-(2-chlorobenzyl)-3-chloro-N-(2-(diethylamino)ethyl)-4-fluoro-1H-pyrazole-5-carboxamide] |
| 100% |  | O=C(c1cc(C(F)(F)F)n[nH]1)N(CCN1CCCCCC1)Cc1ccc(O)cc1Cl [Example 194, N-(2-chloro-4-hydroxybenzyl)-N-(2-(azepan-1-yl)ethyl)-3-(trifluoromethyl)-1H-pyrazole-5-carboxamide] |
